Measurements published in patent US12331063B2, “Hetero-bicyclic inhibitors of KRAS” (Incyte Corporation, priority 2021, dated 2025).

What follows are compounds tested against KRAS G12D (Homo sapiens, UniProt P01116, G12D) (assay: GDP-GTP exchange assay (bodipy-GDP/GppNHp, SOS1), KRAS G12D). Conditions: bodipy-loaded KRAS G12D 2.5 nM, 4 hours incubation after adding GppNHp-SOS1 mixture.
Format: biochemical
Method: The inhibitor potency of the exemplified compounds was determined in a fluorescence based guanine nucleotide exchange assay, which measures the exchange of bodipy-GDP (fluorescently labeled GDP) for GppNHp (Non-hydrolyzable GTP analog) to generate the active state of KRAS in the presence of SOS1 (guanine nucleotide exchange factor). Inhibitors were serially diluted in DMSO and a volume of 0.1 μL was transferred to the wells of a black low volume 384-well plate. 5 μL/well volume of bodipy-loaded KRAS G12C diluted to 5 nM in assay buffer (25 mM Hepes pH 7.5, 50 mM NaCl, 10 mM MgCl2 and 0.01% Brij-35) was added to the plate and pre-incubated with inhibitor for 2 hours at ambient temperature. Appropriate controls (enzyme with no inhibitor or with a G12C inhibitor (AMG-510)) were included on the plate. The exchange was initiated by the addition of a 5 μL/well volume containing 1 mM GppNHp and 300 nM SOS1 in assay buffer. The 10 μL/well reaction concentration of the bodipy-loaded KRAS G12C, GppNHp, and SOS1 were 2.5 nM, 500 uM, and 150 nM, respectively. The reaction plates were incubated at ambient temperature for 2 hours, a time estimated for complete GDP-GTP exchange in the absence of inhibitor. For the KRAS G12D and G12V mutants, similar guanine nucleotide exchange assays were used with 2.5 nM as final concentration for the bodipy loaded KRAS proteins and with 4 hours and 3 hours incubation after adding GppNHp-SOS1 mixture for G12D and G12V respectively. A cyclic peptide described to selectively bind G12D mutant (Sakamoto et al., BBRC 484.3 (2017), 605-611) or internal compounds with confirmed binding were used as positive controls in the assay plates. Fluorescence intensities were measured on a PheraStar plate reader instrument (BMG Labtech) with excitation at 485 nm and emission at 520 nm.
Either GraphPad prism or XLfit was used to analyze the data. The IC50 values were derived by fitting the data to a four parameter logistic equation producing a sigmoidal dose-response curve with a variable Hill coefficient. Prism equation: Y=Bottom+(Top−Bottom)/(1+10^((Log IC50−X)*Hill slope)); XLfit equation: Y=(A+((B−A)/(1+((X/C)^D)))) where X is the logarithm of inhibitor concentration and Y is the response.
The symbol “†” indicates IC50≤100 nM, “††” indicates IC50>100 nM but ≤1 μM; and “†††” indicates IC50 is >1 μM but ≤5 μM, “††††” indicates IC50 is >5 μM but ≤10 μM.

KRAS G12D, sequence (P01116 1-188 isoform P01116-2 G12D): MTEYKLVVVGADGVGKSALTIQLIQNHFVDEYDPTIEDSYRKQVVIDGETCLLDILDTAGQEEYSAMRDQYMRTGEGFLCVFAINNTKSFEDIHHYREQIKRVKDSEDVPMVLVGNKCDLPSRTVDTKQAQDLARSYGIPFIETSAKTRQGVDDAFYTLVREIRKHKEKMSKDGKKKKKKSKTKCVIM

Question: With `CN(C)C1CN(c2nc(N3CCC(CC#N)C3)c3cc(CCC#N)c(-c4cc(O)cc5ccccc45)c(F)c3c2C#N)C1` (stereo not shown) [Example 12, 7-(2-cyanoethyl)-1-(3-(cyanomethyl)pyrrolidin-1-yl)-3-(3-(dimethylamino)azetidin-1-yl)-5-fluoro-6-(3-hydroxynaphthalen-1-yl)isoquinoline-4-carbonitrile] as the compound, how does the IC50 read?
Answer: The IC50 was ≤ 100 nM.

Question: Which IC50 does the source give for `CN1CCC[C@H]1COc1nc(N2C3CCC2CNC3)c2cc(CCC#N)c(-c3cc(O)cc4ccccc34)c(F)c2c1C#N` [Example 7, 1-(3,8-diazabicyclo[3.2.1]octan-8-yl)-7-(2-cyanoethyl)-5-fluoro-6-(3-hydroxynaphthalen-1-yl)-3-(((S)-1-methylpyrrolidin-2-yl)methoxy)isoquinoline-4-carbonitrile] here?
Answer: Its IC50 is 100 to 1000 nM.

Question: For `CN(C)C1CN(c2nc(N3C[C@H]4CC[C@@H]3CN4)c3cc(CCC#N)c(-c4cc(O)cc5ccccc45)c(F)c3c2C#N)C1` [Example 10, 1-((1R,4R)-2,5-diazabicyclo[2.2.2]octan-2-yl)-7-(2-cyanoethyl)-3-(3-(dimethylamino)azetidin-1-yl)-5-fluoro-6-(3-hydroxynaphthalen-1-yl)isoquinoline-4-carbonitrile], which IC50 is on record?
Answer: Its IC50 is 100 to 1000 nM.

Question: `CN1CCC(Oc2nc(N3C4CCC3CNC4)c3cc(CCC#N)c(-c4cc(O)cc5ccccc45)c(F)c3c2C#N)CC1` [Example 8, 1-(3,8-diazabicyclo[3.2.1]octan-8-yl)-7-(2-cyanoethyl)-5-fluoro-6-(3-hydroxynaphthalen-1-yl)-3-((1-methylpiperidin-4-yl)oxy)isoquinoline-4-carbonitrile] was tested. Which IC50 did it give?
Answer: Its IC50 is 100 to 1000 nM.

Question: Which IC50 does the source give for `CN(C)C1CN(c2nc(N3C4CCC3CNC4)c3cc(CCC#N)c(-c4cc(O)cc5ccccc45)c(F)c3c2C2CC2)C1` [Example 5, 3-(1-(3,8-diazabicyclo[3.2.1]octan-8-yl)-4-cyclopropyl-3-(3-(dimethylamino)azetidin-1-yl)-5-fluoro-6-(3-hydroxynaphthalen-1-yl)isoquinolin-7-yl)propanenitrile] here?
Answer: Its IC50 is 100 to 1000 nM.

Question: Which IC50 does the source give for `CN(C)C1CN(c2nc(N3C4CCC3CNC4)c3ccc(-c4cc(O)cc5ccccc45)c(F)c3c2C#N)C1` [Example 1, 1-(3,8-diazabicyclo[3.2.1]octan-8-yl)-3-(3-(dimethylamino)azetidin-1-yl)-5-fluoro-6-(3-hydroxynaphthalen-1-yl)isoquinoline-4-carbonitrile] here?
Answer: The IC50 was ≤ 100 nM.

Question: `CN(C)C1CN(c2nc(N3C[C@@H](N)C[C@H]3CO)c3cc(CCC#N)c(-c4cc(O)cc5ccccc45)c(F)c3c2C#N)C1` [Example 11, 1-((2S,4S)-4-amino-2-(hydroxymethyl)pyrrolidin-1-yl)-7-(2-cyanoethyl)-3-(3-(dimethylamino)azetidin-1-yl)-5-fluoro-6-(3-hydroxynaphthalen-1-yl)isoquinoline-4-carbonitrile] was tested. Which IC50 did it give?
Answer: Its IC50 is 100 to 1000 nM.

Question: `Cc1c(N2CC(N(C)C)C2)nc(N2C3CCC2CNC3)c2cc(CCC#N)c(-c3cc(O)cc4ccccc34)c(F)c12` [Example 3, 3-(1-(3,8-diazabicyclo[3.2.1]octan-8-yl)-3-(3-(dimethylamino)azetidin-1-yl)-5-fluoro-6-(3-hydroxynaphthalen-1-yl)-4-methylisoquinolin-7-yl)propanenitrile] was tested. Which IC50 did it give?
Answer: The IC50 was 100 to 1000 nM.

Question: With `CN(C)C1CN(c2nc(N3CC[C@H](N)C3)c3cc(CCC#N)c(-c4cc(O)cc5ccccc45)c(F)c3c2C#N)C1` [Example 13, 1-((S)-3-aminopyrrolidin-1-yl)-7-(2-cyanoethyl)-3-(3-(dimethylamino)azetidin-1-yl)-5-fluoro-6-(3-hydroxynaphthalen-1-yl)isoquinoline-4-carbonitrile] as the compound, how does the IC50 read?
Answer: Its IC50 is ≤ 100 nM.

Question: With `CCc1c(F)ccc2cc(O)cc(-c3ncc4c(N5CC6CCC(C5)N6)nc(N5CC(C)(N(C)C)C5)c(C#N)c4c3F)c12` [Example 16, 1-(3,8-diazabicyclo[3.2.1]octan-3-yl)-3-(3-(dimethylamino)-3-methylazetidin-1-yl)-6-(8-ethyl-7-fluoro-3-hydroxynaphthalen-1-yl)-5-fluoro-2,7-naphthyridine-4-carbonitrile] as the compound, how does the IC50 read?
Answer: The IC50 was ≤ 100 nM.

Question: How did the IC50 turn out when `N#Cc1c(OC[C@@]23CCCN2C[C@H](F)C3)nc(N2CC3CCC(C2)N3)c2cnc(-c3cc(O)cc4ccccc34)c(F)c12` [Example 15, 1-(3,8-diazabicyclo[3.2.1]octan-3-yl)-5-fluoro-3-(((2R,7aS)-2-fluorotetrahydro-1H-pyrrolizin-7a(5H)-yl)methoxy)-6-(3-hydroxynaphthalen-1-yl)-2,7-naphthyridine-4-carbonitrile] was run?
Answer: The IC50 was ≤ 100 nM.

Question: How did the IC50 turn out when `CN(C)C1CN(c2nc(N3C4CCC3CNC4)c3cc(CCC#N)c(-c4cc(O)cc5ccccc45)c(F)c3c2C#N)C1` [Example 6, 1-(3,8-diazabicyclo[3.2.1]octan-8-yl)-7-(2-cyanoethyl)-3-(3-(dimethylamino)azetidin-1-yl)-5-fluoro-6-(3-hydroxynaphthalen-1-yl)isoquinoline-4-carbonitrile] was run?
Answer: Its IC50 is 100 to 1000 nM.

Question: For `CN(C)Cc1cccc(-c2nc(N3C4CCC3CNC4)c3cc(CCC#N)c(-c4cc(O)cc5ccccc45)c(F)c3c2C#N)c1` [Example 9, 1-(3,8-diazabicyclo[3.2.1]octan-8-yl)-7-(2-cyanoethyl)-3-(3-((dimethylamino)methyl)phenyl)-5-fluoro-6-(3-hydroxynaphthalen-1-yl)isoquinoline-4-carbonitrile], which IC50 is on record?
Answer: Its IC50 is 100 to 1000 nM.

Question: With `C[C@@H]1C[C@H](N)CN1c1nc(N2CC(N(C)C)C2)c(C#N)c2c(F)c(-c3cc(O)cc4ccccc34)c(CCC#N)cc12` [Example 14, 1-((2R,4S)-4-amino-2-methylpyrrolidin-1-yl)-7-(2-cyanoethyl)-3-(3-(dimethylamino)azetidin-1-yl)-5-fluoro-6-(3-hydroxynaphthalen-1-yl)isoquinoline-4-carbonitrile] as the compound, how does the IC50 read?
Answer: Its IC50 is ≤ 100 nM.

Question: For `CN(C)C1CN(c2nc(N3C4CCC3CNC4)c3cc(CCC#N)c(-c4cc(O)cc5ccccc45)c(F)c3c2-c2ccccc2)C1` [Example 4, 3-(1-(3,8-diazabicyclo[3.2.1]octan-8-yl)-3-(3-(dimethylamino)azetidin-1-yl)-5-fluoro-6-(3-hydroxynaphthalen-1-yl)-4-phenylisoquinolin-7-yl)propanenitrile], which IC50 is on record?
Answer: The IC50 was 5000 to 10000 nM.

Question: With `CN(C)C1CN(c2nc(N3C4CCC3CNC4)c3cc(CCC#N)c(-c4cc(O)cc5ccccc45)c(F)c3c2Cl)C1` [Example 2, 3-(1-(3,8-diazabicyclo[3.2.1]octan-8-yl)-4-chloro-3-(3-(dimethylamino)azetidin-1-yl)-5-fluoro-6-(3-hydroxynaphthalen-1-yl)isoquinolin-7-yl)propanenitrile] as the compound, how does the IC50 read?
Answer: The IC50 was 100 to 1000 nM.
